The text below walks through data of PubChem BioAssay AID248 (DTP/NCI, 2004).

Several values for one entry are separate records, joined by “and”; a condition that tells them apart may be missing. Equal entries are not always repeated. Toxic doses and inconclusive results are not listed.

In the experiment the test system is L1210 leukemia ip in BDF1 mice, survival T/C. The experiment in a line: NCI In Vivo Anticancer Drug Screen. Data for tumor model L1210 Leukemia (intraperitoneal) in B6D2F1 (BDF1) mice. As to conditions: endpoint: mean survival time, higher = longer survival. The gist of the method:
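Antitumor effect is assessed in tumor-bearing animals. Survival in the compound arm is compared with a vehicle-dosed control arm and expressed as their quotient.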

The mark [1] stands for this setting: dose: 100.0 mg/kg/injection, schedule: Q04DX002 (ip), vehicle: Klucel (hydroxypropylcellulose) (HPC).
Setting [2] is: dose: 200.0 mg/kg/injection, schedule: Q04DX002 (ip), vehicle: Klucel (hydroxypropylcellulose) (HPC).
Where [3] appears, read: dose: 400.0 mg/kg/injection, schedule: Q04DX002 (ip), vehicle: Klucel (hydroxypropylcellulose) (HPC).
[4] abbreviates: dose: 100.0 mg/kg/injection, schedule: Q01DX001 (ip), vehicle: carboxymethylcellulose (CMC).
The mark [5] stands for this setting: dose: 200.0 mg/kg/injection, schedule: Q01DX001 (ip), vehicle: carboxymethylcellulose (CMC).
Setting [6] is: dose: 400.0 mg/kg/injection, schedule: Q01DX001 (ip), vehicle: carboxymethylcellulose (CMC).
Setting [7] is: dose: 100.0 mg/kg/injection, schedule: Q04DX003 (ip), vehicle: Klucel (hydroxypropylcellulose) (HPC).
The mark [8] stands for this setting: dose: 200.0 mg/kg/injection, schedule: Q04DX003 (ip), vehicle: Klucel (hydroxypropylcellulose) (HPC).
[9] abbreviates: dose: 400.0 mg/kg/injection, schedule: Q04DX003 (ip), vehicle: Klucel (hydroxypropylcellulose) (HPC).
The mark [10] stands for this setting: dose: 12.5 mg/kg/injection, schedule: Q01DX009 (ip), vehicle: Klucel (hydroxypropylcellulose) (HPC).
The mark [11] stands for this setting: dose: 100.0 mg/kg/injection, schedule: Q01DX009 (ip), vehicle: Klucel (hydroxypropylcellulose) (HPC).
The mark [12] stands for this setting: dose: 200.0 mg/kg/injection, schedule: Q01DX009 (ip), vehicle: Klucel (hydroxypropylcellulose) (HPC).
[13] abbreviates: dose: 400.0 mg/kg/injection, schedule: Q01DX009 (ip), vehicle: Klucel (hydroxypropylcellulose) (HPC).

In the case of `CCCCCCCC[Si](C)(C)C`, the T/C was 100 % of control (dose: 100.0 mg/kg/injection, schedule: Q01DX001 (ip), vehicle: saline); 97 % of control (dose: 200.0 mg/kg/injection, schedule: Q01DX001 (ip), vehicle: saline); 115 % of control (dose: 400.0 mg/kg/injection, schedule: Q01DX001 (ip), vehicle: saline).
Turning to `COC(=O)c1cn2ccc(C(=O)c3ccccc3)cc2c1C(=O)OC`, the T/C is 95 % of control under setting [1], 106 % of control under setting [2] and 98 % of control under setting [3].
With `CCOC(=O)C(C(C)=O)C(c1ccccc1)C(C(C)=O)C(=O)OCC` (stereo not drawn), the T/C reads like this: (dose: 25.6 mg/kg/injection, schedule: Q04DX002 (ip), vehicle: saline with Tween-80) 97 % of control; (dose: 64.0 mg/kg/injection, schedule: Q04DX002 (ip), vehicle: saline with Tween-80) 104 % of control; (dose: 100.0 mg/kg/injection, schedule: Q04DX003 (ip), vehicle: saline with Tween-80) 101 % of control; (dose: 160.0 mg/kg/injection, schedule: Q04DX002 (ip), vehicle: saline with Tween-80) 112 % of control; (dose: 200.0 mg/kg/injection, schedule: Q04DX003 (ip), vehicle: saline with Tween-80) 98 % of control; (dose: 400.0 mg/kg/injection, schedule: Q04DX002 (ip), vehicle: saline with Tween-80) 104 % of control. The T/C (dose: 400.0 mg/kg/injection, schedule: Q04DX003 (ip), vehicle: saline with Tween-80) was 93 % of control.
Turning to `c1ccc(C2C(c3ccccc3)C(c3ccccc3)C2c2ccccc2)cc1` (stereo not drawn), the T/C by setting is: (dose: 75.0 mg/kg/injection, schedule: Q01DX001 (ip), vehicle: carboxymethylcellulose (CMC)) 91 % of control; (dose: 150.0 mg/kg/injection, schedule: Q01DX001 (ip), vehicle: carboxymethylcellulose (CMC)) 94 % of control; (dose: 300.0 mg/kg/injection, schedule: Q01DX001 (ip), vehicle: carboxymethylcellulose (CMC)) 88 % of control.
As to `O=C(N/N=C\c1ccccc1C(=O)O)c1ccco1`, the T/C (dose: 100.0 mg/kg/injection, schedule: Q01DX001 (ip), vehicle: other) is 87 % of control; the T/C (dose: 200.0 mg/kg/injection, schedule: Q01DX001 (ip), vehicle: other) is 93 % of control; the T/C (dose: 400.0 mg/kg/injection, schedule: Q01DX001 (ip), vehicle: other) was 90 % of control.
Consider `Cc1cc(=O)oc2cc(OS(C)(=O)=O)ccc12`, for which the T/C is, setting by setting: under setting [4], 113 % of control; under setting [5], 107 % of control; under setting [6], 98 % of control.
In the case of `CCCCCCCCCCCCOc1ccc(C=Nc2ccc(C)cc2)cc1`, the T/C is, setting by setting: under setting [1], 109 % of control; under setting [2], 109 % of control; under setting [3], 95 % of control.
As to `O=[N+]([O-])c1ccc(-c2cccc3ccccc23)c([N+](=O)[O-])c1`, the T/C is, setting by setting: under setting [4], 96 % of control; under setting [6], 91 % of control.
As for `NC(=O)NC(Cc1ccccc1)(C(=O)O)c1ccccc1` (stereo not drawn), the T/C under setting [7] was 103 % of control, the T/C under setting [8] is 98 % of control and the T/C under setting [9] is 103 % of control.
On to `CCP(=S)(CC)CC`, for which the T/C reads like this: under setting [1], 104 % of control; under setting [2], 96 % of control; under setting [3], 93 % of control.
As to `Cc1ccc(NC(=O)N(CCBr)N=O)cc1`, the T/C reads like this: (dose: 26.0 mg/kg/injection, schedule: Q01DX015 (ip), vehicle: carboxymethylcellulose (CMC)) 117 % of control; (dose: 39.0 mg/kg/injection, schedule: Q01DX015 (ip), vehicle: carboxymethylcellulose (CMC)) 101 % of control; (dose: 58.0 mg/kg/injection, schedule: Q01DX015 (ip), vehicle: carboxymethylcellulose (CMC)) 101 % of control and 121 % of control; (dose: 88.0 mg/kg/injection, schedule: Q01DX015 (ip), vehicle: carboxymethylcellulose (CMC)) 103 % of control; under setting [4], 122 % of control; (dose: 133.0 mg/kg/injection, schedule: Q01DX015 (ip), vehicle: carboxymethylcellulose (CMC)) 89 % of control. Also, the T/C reads like this: (dose: 266.0 mg/kg/injection, schedule: Q01DX001 (ip), vehicle: carboxymethylcellulose (CMC)) 168 % of control; under setting [6], 150 % of control and 153 % of control.
As to `CN1C(=O)CN=C(c2ccccc2)c2cc(Cl)ccc21`, the T/C was 97 % of control under setting [10]; 95 % of control (dose: 25.0 mg/kg/injection, schedule: Q01DX009 (ip), vehicle: Klucel (hydroxypropylcellulose) (HPC)); 93 % of control (dose: 25.0 mg/kg/injection, schedule: Q04DX003 (ip), vehicle: Klucel (hydroxypropylcellulose) (HPC)); 100 % of control (dose: 50.0 mg/kg/injection, schedule: Q01DX009 (ip), vehicle: Klucel (hydroxypropylcellulose) (HPC)); 93 % of control (dose: 50.0 mg/kg/injection, schedule: Q04DX003 (ip), vehicle: Klucel (hydroxypropylcellulose) (HPC)); 100 % of control and 103 % of control under setting [11]. Moreover, the T/C was 110 % of control and 93 % of control under setting [7]; 100 % of control and 97 % of control under setting [12]; 102 % of control and 110 % of control under setting [8]; 100 % of control under setting [13]; 88 % of control under setting [9].
Consider `CN(C)c1ccc(/C=N/NC(=O)C(O)C(O)C(O)C(O)CO)cc1` (stereo not drawn), for which the T/C was 97 % of control under setting [11], 96 % of control under setting [12] and 102 % of control under setting [13].
As to `O=C(O)C1C2C=CC(C2)C1C(=O)O.[Cu+2]` (stereo not drawn), the T/C is 95 % of control (dose: 3.12 mg/kg/injection, schedule: Q01DX009 (ip), vehicle: Klucel (hydroxypropylcellulose) (HPC)); 96 % of control (dose: 6.25 mg/kg/injection, schedule: Q01DX009 (ip), vehicle: Klucel (hydroxypropylcellulose) (HPC)); 101 % of control under setting [10]; 103 % of control (dose: 12.5 mg/kg/injection, schedule: Q04DX003 (ip), vehicle: Klucel (hydroxypropylcellulose) (HPC)); 101 % of control (dose: 18.0 mg/kg/injection, schedule: Q01DX009 (ip), vehicle: Klucel (hydroxypropylcellulose) (HPC)); 93 % of control (dose: 28.0 mg/kg/injection, schedule: Q01DX009 (ip), vehicle: Klucel (hydroxypropylcellulose) (HPC)).
With `CCCCCCCCCCCC[N+](C)(C)Cc1ccccc1` (tested in a mixture with another compound), the T/C is, setting by setting: (dose: 2.0 mg/kg/injection, schedule: Q01DX015 (ip), vehicle: saline) 105 % of control; (dose: 4.0 mg/kg/injection, schedule: Q01DX015 (ip), vehicle: saline) 94 % of control; (dose: 8.0 mg/kg/injection, schedule: Q01DX015 (ip), vehicle: saline) 103 % of control.
With `CC1CC(C)(C)NC(=S)O1` (stereo not drawn), the T/C was 101 % of control (dose: 15.0 mg/kg/injection, schedule: Q01DX001 (ip), vehicle: carboxymethylcellulose (CMC)) and 102 % of control (dose: 30.0 mg/kg/injection, schedule: Q01DX001 (ip), vehicle: carboxymethylcellulose (CMC)).
Regarding `O=C(OCc1ccccc1CN1CCCCC1)c1ccc([N+](=O)[O-])cc1`, the T/C was 101 % of control (dose: 25.0 mg/kg/injection, schedule: Q04DX002 (ip), vehicle: Klucel (hydroxypropylcellulose) (HPC)); 94 % of control (dose: 50.0 mg/kg/injection, schedule: Q04DX002 (ip), vehicle: Klucel (hydroxypropylcellulose) (HPC)); 90 % of control under setting [1].
On to `Cc1ccc(NCC(O)CN2CCCCC2)cc1` (stereo not drawn), for which the T/C is 104 % of control (dose: 10.0 mg/kg/injection, schedule: Q01DX009 (ip), vehicle: other); 98 % of control (dose: 20.0 mg/kg/injection, schedule: Q01DX009 (ip), vehicle: other); 92 % of control (dose: 40.0 mg/kg/injection, schedule: Q01DX009 (ip), vehicle: other).
For `Cn1c(C(=O)O)cc2ccccc21`, the T/C is, setting by setting: under setting [11], 110 % of control; under setting [12], 112 % of control; under setting [13], 96 % of control.
Take `CCCN(CCC)C(=O)/C(=C\c1ccccc1)NC(=O)c1ccccc1`: the T/C is 93 % of control under setting [4], 93 % of control under setting [5] and 98 % of control under setting [6].
